Experimental data reported in PubChem BioAssay (NCI).
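Cells were grown in 96-well plates and exposed to each compound for 48 hours at five concentrations; endpoints were interpolated linearly between bracketing concentrations, or set to the highest concentration if not reached. At the TGI there is no net growth.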

What was measured:
Assay in all cases: growth of human tumour cells (NCI), 48 h
[1] = tested on: DU-145 prostate
[2] = tested on: HCT-15 colon
[3] = tested on: IGROV1 ovarian
[4] = tested on: KM12 colon
[5] = tested on: LOX IMVI melanoma
[6] = tested on: MALME-3M melanoma
[7] = tested on: MCF7 breast
[8] = tested on: MDA-MB-231 breast
[9] = tested on: NCI-H226 lung
[10] = tested on: NCI-H23 lung
[11] = tested on: NCI-H522 lung
[12] = tested on: OVCAR-4 ovarian
[13] = tested on: PC-3 prostate
[14] = tested on: SK-MEL-2 melanoma
[15] = tested on: SK-OV-3 ovarian
[16] = tested on: SN12C renal
[17] = tested on: SNB-75 CNS
[18] = tested on: U251 CNS
[19] = tested on: A498 renal

Row | SMILES | TGI [1] [µM] | TGI [2] [µM] | TGI [3] [µM] | TGI [4] [µM] | TGI [5] [µM] | TGI [6] [µM] | TGI [7] [µM] | TGI [8] [µM] | TGI [9] [µM] | TGI [10] [µM] | TGI [11] [µM] | TGI [12] [µM] | TGI [13] [µM] | TGI [14] [µM] | TGI [15] [µM] | TGI [16] [µM] | TGI [17] [µM] | TGI [18] [µM] | TGI [19] [µM]
1 | CCCCCCC1CC(=O)C1(Cl)Cl (stereo unspecified) | 92.8 | 99.6 | 61.8 | 55.7 | 44.6 | 38.8 | 63.7 | 68.5 | > 100 | 57.7 | 34.6 | > 100 | > 100 | 68.3 | > 100 | 98.1 | 36 | > 100 | 
2 | COc1ccc(/C=C2\CCc3cc(OC)c(OC)cc3C2=O)cc1 | > 10 | > 10 | > 10 | > 10 | > 10 | > 10 | > 10 | > 10 | > 10 | > 10 |  | > 10 | > 10 | > 10 | > 10 | > 10 | > 10 | > 10 | 
3 | COc1ccc(Nc2nc3ccc(C(F)(F)F)cc3nc2C(=O)O)cc1 | > 100 | > 100 | 39.5 | 70.9 | > 100 | > 100 | > 100 | > 100 | > 100 | 93.3 |  | > 100 | 92.4 | > 100 | 71.5 | > 100 | 78.6 | > 100 | 57.2
4 | O=C1OCCC[C@H]2O[C@@H](COCc3ccccc3)C[C@@H]12 | > 100 | > 100 |  | > 100 |  |  | > 100 | > 100 | > 100 | > 100 |  | > 100 | > 100 | > 100 | > 100 | > 100 | > 100 | > 100 | > 100
5 | CCOC(=O)C(NC(=O)c1cccc(Cl)c1)(N1CCN(c2cc3c(cc2F)c(=O)c(C(=O)O)cn3C2CC2)CC1)C(F)(F)F (stereo unspecified) | 70.5 |  | 41.5 | 23.9 |  | 32.2 |  | 34.2 | 40.3 | 37.1 |  | 39 | 34.6 | 29.8 | 66.5 | 93.9 | 50.7 | 18.3 | 55.7
6 | NNc1ncc2c(n1)-c1ccccc1OC2 | > 100 | > 100 | > 100 | > 100 | > 100 | > 100 | > 100 | > 100 | > 100 | > 100 | > 100 | > 100 | > 100 | > 100 | > 100 | > 100 | > 100 | > 100 | 
7 | COCOc1c(C(OCOC)c2cnc(Sc3ccccc3)n2C)ccc(OC)c1OC (stereo unspecified) | > 100 | > 100 | > 100 | > 100 | > 100 | > 100 | > 100 | > 100 | > 100 | > 100 | > 100 | > 100 | > 100 | > 100 | > 100 | > 100 | > 100 | > 100 | 
8 | O=c1c2cc(S(=O)(=O)Nc3ccc(Cl)cc3Cl)ccc2ncn1NS(=O)(=O)c1cccc2ccccc12 | > 100 | > 100 | > 100 | > 100 | 50 | > 100 | > 100 | > 100 | > 100 | > 100 | > 100 | > 100 | > 100 | > 100 | > 100 | > 100 | > 100 | > 100 | 
9 | C[N+](C)(C)CCOP(=O)([O-])OCCNC(=O)c1ccc2ccccc2c1 | > 100 | > 100 | > 100 | > 100 | > 100 | > 100 | > 100 | > 100 | > 100 | > 100 | > 100 |  | > 100 |  | > 100 | > 100 | > 100 | > 100 | 
10 | Cc1c/c(=N/NC(=O)c2ccncc2)n2nc(N)sc2n1 | > 100 | > 100 | > 100 | > 100 | > 100 |  | > 100 | > 100 | > 100 | > 100 | > 100 | > 100 | > 100 | > 100 | > 100 | > 100 | > 100 | > 100 | > 100
11 | O=C(c1ccccc1)N1CCC(Nc2nccs2)O1 (stereo unspecified) | > 10 | > 10 | > 10 |  | > 10 | > 10 | > 10 | > 10 | > 10 | > 10 | > 10 | > 10 | > 10 | > 10 | > 10 | > 10 | > 10 |  | 
12 | CC(=O)O[C@H]1C(=O)[C@@]2(C)C(C(OC(=O)c3ccccc3)[C@]3(O)CC(OC(=O)C(O)C(NC(=O)c4ccccc4)c4cccc(Cl)c4)C(C)=C1C3(C)C)[C@]1(OC(C)=O)CO[C@@H]1C[C@@H]2O (stereo partly specified) | 9.16 | > 10 | > 10 | > 10 | > 10 | > 10 | > 10 | > 10 | > 10 | > 10 | > 10 | > 10 | > 10 | > 10 | > 10 | > 10 | > 10 | > 10 | 
13 | COc1ccc2nc3c([N+](=O)[O-])ccc(NCCN(C)C)c3c(NCCN(C)C)c2c1 | > 10 | 2.59 | 5.13 | 2.82 | 3.11 | 7.69 | 1.84 | 2.67 |  | 3.04 |  | 1.86 | 2.02 |  | > 10 | 2.78 | 3.51 |  | 
14 | CCCCc1ccc(Nc2nc(Cl)c3ncn(C4CC(Oc5ccc(C)cc5)C(COc5ccc(C)cc5)O4)c3n2)cc1 (stereo unspecified) | > 100 | > 100 | > 100 | > 100 | > 100 | > 100 | > 100 | > 100 | > 100 | > 100 | > 100 |  |  | > 100 | > 100 | > 100 | > 100 |  | > 100
15 | N=c1oc2ccc(Cl)cc2cc1C(N)=O | > 100 | 69.2 | > 100 | 88.4 | > 100 | 37.1 |  | 69 | 78.1 | 75.1 |  | 85.9 | 72.8 | 31.8 | > 100 | 45.1 | > 100 | > 100 | > 100
16 | Cc1cccc(C)c1N1C(=O)C2c3[nH]c4ccccc4c3C3CCC(C(C)(C)C)CC3C2C1=O (stereo unspecified) | 22.5 | 24.2 | 42.6 |  | 23.6 | 28.2 |  | 24.4 | 41 | 39.8 |  |  | 20.6 | 33.7 | > 100 | 21.8 |  | 36.6 | 37.6
17 | CC(=O)N(CCCCNC(=O)C(F)(F)F)CCCNC(=O)C(F)(F)F | > 100 | > 100 | > 100 | > 100 |  |  | > 100 | > 100 | > 100 | > 100 | > 100 | > 100 | > 100 | > 100 | > 100 | > 100 | > 100 | > 100 | > 100
18 | O=C(N/N=C/c1ccc(Cl)cc1)c1ccccc1Nc1ccccc1C(=O)N/N=C/c1ccc(Cl)cc1 | > 100 | > 100 | > 100 | > 100 | > 100 | > 100 | > 100 | > 100 | > 100 | > 100 |  | > 100 | > 100 | > 100 | > 100 | > 100 | > 100 | > 100 | > 100
19 | Clc1ccc(-c2nc3ccc4ccccc4c3c3c2CCCC3)cc1 | > 100 | > 100 | > 100 | > 100 |  | > 100 | > 100 | > 100 | > 100 | > 100 | > 100 |  |  | > 100 | > 100 |  | > 100 | > 100 | > 100
20 | O=C1N(CN2CCOCC2)CN(CN2CCOCC2)C(=O)N1Cc1ccc(CN2C(=O)N(CN3CCOCC3)CN(CN3CCOCC3)C2=O)cc1 | > 100 | > 100 | > 100 | > 100 | 76.4 |  | > 100 | > 100 | > 100 | > 100 | > 100 | > 100 | > 100 | 39.8 | > 100 | > 100 | > 100 | > 100 | > 100
21 | O=c1oc2c/c(=C\c3ccccn3)c(=O)c3cccc1c3-2 | > 100 | > 100 | > 100 | > 100 | > 100 | > 100 | > 100 | > 100 | > 100 | > 100 | > 100 | > 100 | > 100 |  | > 100 | > 100 |  |  | 
22 | COc1ccc(/C=C2\N=C(c3ccccc3)OC2=O)cc1OC(C)=O | > 100 | > 100 | > 100 |  | > 100 | 68.6 | > 100 | > 100 | > 100 | > 100 |  | > 100 | > 100 | 83.5 | > 100 | > 100 | > 100 | > 100 | > 100
23 | CCn1c(O)c(C=Nc2ccccc2)s/c1=N/Nc1nc(-c2ccc(O)c(O)c2)cs1 | > 100 | > 100 | > 100 | > 100 | > 100 | > 100 | > 100 | > 100 | > 100 | > 100 | 98.2 | > 100 | > 100 | > 100 | > 100 | > 100 | > 100 | > 100 | 
24 | Cc1ccc(S(=O)(=O)N/N=C2\CC(C)OC3=C2CCCCCC3)cc1 (stereo unspecified) | 37.6 |  | 38.2 | 37.4 | 33.7 | 39.5 | 38.2 | 39.4 | 39 | 41.6 |  | 35.6 | 38.9 |  | 62.8 | 34.4 | 52.4 |  | 29.7
25 | C=C1CC(C)(COc2ccc3c(C)cc(=O)oc3c2)OC1=O (stereo unspecified) | 8.96 | 4.23 | 8.98 | 17.4 | 5.11 | 6.75 | 2.39 | 15.5 | 26.2 | 14.1 | 0.491 | 9.06 | 13.5 | 5.18 | 15.1 | 16.8 | 16.3 | 25.4 | 
26 | CNN1C(=O)c2c(C)c(C)c(C#N)c(N)c2C1=O | > 100 | > 100 | > 100 | > 100 | > 100 | > 100 | > 100 | > 100 | > 100 |  | > 100 | > 100 | > 100 | > 100 |  | > 100 | > 100 | > 100 | 
27 | Cc1c(N=Nc2ccc(Cl)cc2)c(C)n(C2OC(CO)C(O)C(O)C2O)c(=S)c1C#N (stereo unspecified) | > 100 | 60.8 | 37.4 | 54.5 | 33.3 | 46.3 | > 100 | 36.1 | 65.9 | 74.3 | 49.9 | 50.1 | 68.7 | 33.8 | > 100 | 41.8 | 68 | 36.4 | 
